Measurements as given in patent US6147097A, “Imidazole derivatives as anti-HIV agents” (Shionogi & Co., Ltd., priority 1994, dated 2000).
In brackets after ≈: the same amount, converted by molar mass. Read-outs that look alike come from different tables or passages of the source.

Legend:
HIV (HTLV-IIIB strain) = test: microbe, parasite or virus in culture; format: cell-based; settings: Human immunodeficiency virus 1, IIIB, MT4, 120 h
Method: The anti-HIV activity of each of the compounds produced in Examples was assayed by the following procedures. […] On the other hand, the test compound was diluted with the above culture medium to predetermined concentrations and distributed in 50 μl aliquots into a 96-well microtiter plate. Then, d suspension of MT-4 cells was added in 100 μl aliquots (3.5×10^4 cells per well) and then the above HIV-containing supernatant diluted with the above culture medium was added, 50 μl (60 pfu (plaque forming units)) per well. (2) The plate was incubated in a CO2 incubator at 37° C. for 5 days. Then, 30 μl/well of 3-(4,5-dimethyl thiazol-2-yl)-2,5-diphenyltetrazolium bromide (MTT) (5 mg/ml PBS) was added and the incubation was further continued for 1 hour. The surviving cells reducing MTT yield precipitation of formazan. Therefore, 150 μl portions of the culture supernatant were removed from all wells and, instead, 150 μl of a solution (10% Triton X-100 and 0.4% (v/v) HCl-added isopropyl alcohol) was added. The plate was shaken on a plate mixer to dissolve the formazan.

[1] = cytotoxicity in MT-4 cells (MTT, culture medium in place of HIV); format: cell-based; settings: human
Outline: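 MT-4 cells (3.5×10^4 per well) exposed to diluted compound with culture medium added instead of HIV, 5 days at 37° C in CO2. MTT added for 1 h, formazan dissolved in Triton X-100/acidified isopropanol. OD read at 560 nm (690 nm reference) and compared with control.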

[2] = target: T1, purified recombinant HIV-1 reverse transcriptase (Human immunodeficiency virus type 1 group M subtype B, UniProt P04585); test: reverse transcriptase inhibition, poly(rA)/(dT) template primer, [3H]dTTP uptake; format: biochemical
T1 construct: purified recombinant HIV-1 reverse transcriptase; made in house; host or cells: Escherichia coli
Outline: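 Inhibition reported as percent reduction of [3H]dTTP incorporation relative to solvent control, after 1 h at 37 °C at pH 8.3. Recombinant RT from E. coli, poly(rA) template with oligo(dT) primer, 4 μM unlabeled dTTP as substrate; product collected on DEAE filter mats.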

[3] = MT-4 cells, 60 pfu HIV per well, 37° C., 5 days, MTT, Tables 1 and 2, read-out: EC50
[4] = MT-4 cells, no virus, 37° C., 5 days, MTT, Table 3, read-out: CC50

| SMILES | EC50 (HIV (HTLV-IIIB strain); [3]) | CC50 at 120 h ([1]; mt-4 cells) | IC50 [2] | CC50 at 120 h [1, 4] | EC50 (HIV (HTLV-IIIB strain)) |
| --- | --- | --- | --- | --- | --- |
| CCn1c(CCCO)nc(C(C)C)c1Sc1cc(Cl)cc(Cl)c1 [Compound 137b, 3-(5-(3,5-dichlorophenylthio)-1-ethyl-4-isopropyl-1H-imidazol-2-yl)-propan-1-ol] | 0.005 to 0.01 µg/mL (≈ 0.0134 to 0.0268 µM) | 6.3 to 12.5 µg/mL (≈ 16.9 to 33.5 µM) | 0.991 µM |  |  |
| CC(C)c1nc(CCCO)n(Cc2ccncc2)c1Sc1cc(Cl)cc(Cl)c1 [Compound 137c, 3-(5-(3,5-dichlorophenylthio)-4-isopropyl-1-(pyridin-4-ylmethyl)-1H-imidazol-2-yl)-propan-1-ol] | 0.003 to 0.005 µg/mL (≈ 0.00687 to 0.0115 µM) | 6.3 to 12.5 µg/mL (≈ 14.4 to 28.6 µM) | 0.71 µM |  |  |
| CC(C)c1nc(CCCO)n(CCO)c1Sc1cc(Cl)cc(Cl)c1 [Compound 137d, 3-(5-(3,5-dichlorophenylthio)-1-(2-hydroxyethyl)-4-isopropyl-1H-imidazol-2-yl)-propan-1-ol] | < 0.008 µg/mL | 6.3 to 12.5 µg/mL (≈ 16.2 to 32.1 µM) | 6.68 µM |  |  |
| Cc1nc(C(C)C)c(Sc2cc(Cl)cc(Cl)c2)n1C [Compound I-1, 5-(3,5-dichlorophenylthio)-1,2-dimethyl-4-isopropyl-1H-imidazole] | 0.008 µg/mL (≈ 0.0254 µM) |  | 3.81 µM | 6.3 to 12.5 µg/mL (≈ 20 to 39.6 µM) |  |
| Cc1cc(C)cc(Sc2c(C(C)C)nc(C)n2C)c1 [Compound I-2, 5-(3,5-dimethylphenylthio)-1,2-dimethyl-4-isopropyl-1H-imidazole] | 0.008 µg/mL (≈ 0.0292 µM) |  | 7.65 µM | 25 µg/mL (≈ 91.1 µM) |  |
| Cc1nc(C(C)C)c(Sc2cccc(Cl)c2)n1C [Compound I-3, 5-(3-chlorophenylthio)-1,2-dimethyl-4-isopropylimidazole] | 0.03 µg/mL (≈ 0.107 µM) |  | 3.56 µM | 12.5 µg/mL (≈ 44.5 µM) |  |
| Cc1cc(C)cc(Sc2c(C(C)C)nc(C)n2Cc2ccccc2)c1 [Compound I-4, 1-benzyl-5-(3,5-dimethylphenylthio)-4-isopropyl-2-methylimidazole] | 0.016 µg/mL (≈ 0.0456 µM) |  | 4.85 µM | 12.5 µg/mL (≈ 35.7 µM) |  |
| CCc1nc(C)n(C)c1Sc1cc(C)cc(C)c1 [Compound I-5, 1,2-dimethyl-5-(3,5-dimethylphenylthio)-4-ethylimidazole] | 0.06 µg/mL (≈ 0.23 µM) |  | 8.83 µM | 1 to 10 µg/mL (≈ 3.84 to 38.4 µM) |  |
| Cc1cc(C)cc(Sc2c(C(C)C)nc(C=O)n2C)c1 [Compound I-6, 5-(3,5-dimethylphenylthio)-4-isopropyl-1-methyl-1H-imidazole-2-carbaldehyde] | 0.03 to 0.06 µg/mL (≈ 0.104 to 0.208 µM) |  | 127 µM | 10 µg/mL (≈ 34.7 µM) |  |
| CC(C)c1nc(C=O)n(C)c1Sc1cc(Cl)cc(Cl)c1 [Compound I-7, 5-(3,5-dichlorophenylthio)-4-isopropyl-1-methyl-1H-imidazole-2-carbaldehyde] | 0.13 µg/mL (≈ 0.395 µM) |  | 131 µM | 10 to 100 µg/mL (≈ 30.4 to 304 µM) |  |
| CC(C)c1nc(CO)n(C)c1Sc1cc(Cl)cc(Cl)c1 [Compound I-8, [5-(3,5-dichlorophenylthio)-4-isopropyl-1-methyl-1H-imidazol-2-yl]methanol] | 0.016 µg/mL (≈ 0.0483 µM) |  | 3.02 µM | 12.5 µg/mL (≈ 37.7 µM) |  |
| Cc1cc(C)cc(Sc2c(C(C)C)nc(CO)n2C)c1 [Compound I-9, [5-(3,5-dimethylphenylthio)-4-isopropyl-1-methyl-1H-imidazol-2-yl]methanol] | 0.008 µg/mL (≈ 0.0275 µM) |  | 8.26 µM | 10 µg/mL (≈ 34.4 µM) |  |
| Cc1cc(C)cc(Sc2c(C(C)C)nc(C=NO)n2C)c1 [Compound I-10, 5-(3,5-dimethylphenylthio)-4-isopropyl-1-methyl-1H-imidazole-2-carbaldehyde oxime] | 1 µg/mL (≈ 3.3 µM) |  | > 330 µM | > 100 µg/mL |  |
| Cc1cc(C)cc(Sc2c(C(C)C)nc(C=NN)n2C)c1 [Compound I-11, 5-(3,5-dimethylphenylthio)-4-isopropyl-1-methyl-1H-imidazole-2-carbaldehyde hydrazone] | 0.25 µg/mL (≈ 0.827 µM) |  | 54.6 µM | 1 to 10 µg/mL (≈ 3.31 to 33.1 µM) |  |
| CC(C)C(=O)c1nc(C(C)C)c(Sc2cc(Cl)cc(Cl)c2)n1C [Compound I-12, [5-(3,5-dichlorophenylthio)-4-isopropyl-1-methyl-1H-imidazol-2-yl] isopropyl ketone] | 50 µg/mL (≈ 135 µM) |  | > 269 µM | 50 to 100 µg/mL (≈ 135 to 269 µM) |  |
| CC(C)c1nc(CO)n(C)c1Sc1cccc(Cl)c1 [Compound I-13, [5-(3-chlorophenylthio)-4-isopropyl-1-methyl-1H-imidazol-2-yl]methanol] | 0.06 µg/mL (≈ 0.202 µM) |  | 2.7 µM | 25 µg/mL (≈ 84.2 µM) |  |
| CC(C)c1nc(CO)n(C)c1Sc1cccc([N+](=O)[O-])c1 [Compound I-14, [4-isopropyl-1-methyl-5-(3-nitrophenylthio)-1H-imidazol-2-yl]methanol] | 0.03 µg/mL (≈ 0.0976 µM) |  | 4.23 µM | 12.5 to 25 µg/mL (≈ 40.7 to 81.3 µM) |  |
| CCCCn1c(CO)nc(C(C)C)c1Sc1cc(Cl)cc(Cl)c1 [Compound I-15, [1-n-butyl-5-(3,5-dichlorophenylthio)-4-isopropyl-1H-imidazol-2-yl]methanol] | 0.005 to 0.01 µg/mL (≈ 0.0134 to 0.0268 µM) |  | 2.01 µM | 6.3 to 12.5 µg/mL (≈ 16.9 to 33.5 µM) |  |
| CC(C)c1nc(CO)n(Cc2ccccc2)c1Sc1cc(Cl)cc(Cl)c1 [Compound I-16, [1-benzyl-5-(3,5-dichlorophenylthio)-4-isopropyl-1H-imidazol-2-yl]methanol] | 0.008 to 0.016 µg/mL (≈ 0.0196 to 0.0393 µM) |  | 3.68 µM | 12.5 to 25 µg/mL (≈ 30.7 to 61.4 µM) |  |
| C=CCn1c(CO)nc(C(C)C)c1Sc1cccc(Cl)c1 [Compound I-17, [1-allyl-5-(3-chlorophenylthio)-4-isopropyl-1H-imidazol-2-yl]methanol] | 0.005 to 0.01 µg/mL (≈ 0.0155 to 0.031 µM) |  | < 2.48 µM | 6.3 to 12.5 µg/mL (≈ 19.5 to 38.7 µM) |  |
| C=CCn1c(CO)nc(C(C)C)c1Sc1cc(Cl)cc(Cl)c1 [Compound I-19, [1-allyl-5-(3,5-dichlorophenylthio)-4-isopropyl-1H-imidazol-2-yl]methanol] |  |  | 2.02 µM | 10 to 100 µg/mL (≈ 28 to 280 µM) | 0.004 to 0.008 µg/mL (≈ 0.0112 to 0.0224 µM) |
| CC(C)c1nc(CO)n(Cc2ccccc2)c1Sc1cccc(Cl)c1 [Compound I-20, [1-benzyl-5-(3-chlorophenylthio)-4-isopropyl-1H-imidazol-2-yl]methanol] | 0.008 µg/mL (≈ 0.0215 µM) |  | 5.63 µM | 6.3 to 12.5 µg/mL (≈ 16.9 to 33.5 µM) |  |
| CC(C)c1nc(CO)n(Cc2ccccc2)c1Sc1cccc([N+](=O)[O-])c1 [Compound I-21, [1-benzyl-4-isopropyl-5-(3-nitrophenylthio)-1H-imidazol-2-yl]methanol] | 0.008 µg/mL (≈ 0.0209 µM) |  | 7.56 µM | 6.3 to 12.5 µg/mL (≈ 16.4 to 32.6 µM) |  |
| C=CCn1c(CO)nc(C(C)C)c1Sc1cccc([N+](=O)[O-])c1 [Compound I-22, [1-allyl-4-isopropyl-5-(3-nitrophenylthio)-1H-imidazol-2-yl]methanol] |  |  | 1.68 µM | 25 µg/mL (≈ 75 µM) | 0.002 µg/mL (≈ 0.006 µM) |
| CCn1c(CO)nc(C(C)C)c1Sc1cccc([N+](=O)[O-])c1 [Compound I-23, [1-ethyl-4-isopropyl-5-(3-nitrophenylthio)-1H-imidazol-2-yl]methanol] | 0.004 µg/mL (≈ 0.0124 µM) |  | 0.996 µM | 25 µg/mL (≈ 77.8 µM) |  |
| CCCn1c(CO)nc(C(C)C)c1Sc1cccc([N+](=O)[O-])c1 [Compound I-24, [4-isopropyl-5-(3-nitrophenylthio)-1-n-propyl-1H-imidazol-2-yl]methanol] | 0.008 µg/mL (≈ 0.0239 µM) |  | 2.98 µM | 25 µg/mL (≈ 74.5 µM) |  |
| CCn1c(CO)nc(C(C)C)c1Sc1cc(Cl)cc(Cl)c1 [Compound I-25, 2-[5-(3,5-dichlorophenylthio)-1-ethyl-4-isopropyl-1H-imidazol-2-yl]methanol] | 0.004 µg/mL (≈ 0.0116 µM) |  | 1.39 µM | 10 to 100 µg/mL (≈ 29 to 290 µM) |  |
| CCCn1c(CO)nc(C(C)C)c1Sc1cc(Cl)cc(Cl)c1 [Compound I-26, [5-(3,5-dichlorophenylthio)-4-isopropyl-1-n-propyl-1H-imidazol-2-yl]methanol] |  |  | 2.53 µM | 10 to 100 µg/mL (≈ 27.8 to 278 µM) | 0.004 to 0.008 µg/mL (≈ 0.0111 to 0.0223 µM) |
